Among the test systems are Escherichia coli MG1655; Escherichia coli BL21; Micrococcus luteus; Saccharomyces cerevisiae; Shigella dysenteriae; Escherichia coli; Staphylococcus aureus; Proteus mirabilis; Salmonella typhimurium; Bacillus subtilis; Pseudomonas aeruginosa; Klebsiella pneumoniae.
Common to all, as to assay: ≥ marks a high value that may be exact or a test limit, other limits are often not marked, values filed in µg/mL are converted to µM
Experiment [1] deals with Staphylococcus aureus USA 100.
The subject of experiment [2] is Escherichia coli NCTC 10418.
For experiment [3], the system named is Pseudomonas aeruginosa PAO1.
The subject of experiment [4] is Streptococcus pyogenes M1T1 5448.
For experiment [5], the system named is Escherichia coli ATCC 25922.
Experiment [6] concerns Pseudomonas aeruginosa ATCC 15692.
The subject of experiment [7] is Staphylococcus aureus ATCC 25923.
The test system of experiment [8] is Staphylococcus epidermidis ATCC 12228.
Experiment [9] concerns Escherichia coli DH5alpha.
The subject of experiment [10] is Staphylococcus aureus ATCC 6538.
Experiment [11] concerns Micrococcus luteus ATCC 4698.
Experiment [12] relates to Staphylococcus epidermidis.
The subject of experiment [13] is Pseudomonas aeruginosa ATCC 9027.
Experiment [14] concerns Bacillus subtilis ATCC 23857.
The subject of experiment [15] is Klebsiella pneumoniae ATCC 700603.
For experiment [16], the system named is Staphylococcus aureus USA 300.
The subject of experiment [17] is Candida albicans ATCC 90028.

We go through 13 compounds from DBAASP.

≈ marks a conversion by molar mass, not a printed value.

Regarding `CC[C@H](C)[C@H](NC(=O)[C@H](CCCCN)NC(=O)CNC(=O)[C@H](CC(C)C)NC(=O)[C@H](Cc1ccccc1)NC(=O)[C@H](CCC(N)=O)NC(=O)[C@H](Cc1ccccc1)NC(=O)[C@@H](N)C(C)C)C(=O)N[C@H](C(=O)N[C@@H](Cc1cnc[nH]1)C(=O)N[C@@H](Cc1cnc[nH]1)C(=O)N[C@H](C(=O)NCC(=O)N[C@@H](CC(N)=O)C(=O)N[C@@H](Cc1ccccc1)C(=O)N[C@H](C(=O)N[C@@H](C)C(=O)NCC(=O)N[C@@H](Cc1ccccc1)C(=O)N[C@@H](CO)C(=O)N[C@@H](Cc1cnc[nH]1)C(=O)N[C@H](C(=O)N[C@@H](Cc1ccccc1)C(N)=O)C(C)C)C(C)C)C(C)C)[C@@H](C)CC` [VFQFLGKIIHHVGNFVAGFSHVF], the MIC against Escherichia coli MG1655 is not below 128 µM.
On to `CC(C)C[C@H](NC(=O)[C@H](CCCN=C(N)N)NC(=O)[C@@H](N)CC(C)C)C(=O)N[C@@H](CCCN=C(N)N)C(N)=O` [LRLR], for which the MIC in experiment [1] is not below 100 µM.
With `CC[C@H](C)[C@H](NC(=O)[C@H](CC(N)=O)NC(=O)[C@@H](NC(=O)[C@H](C)N)C(C)C)C(=O)N1CCC[C@H]1C(=O)N[C@@H](Cc1ccccc1)C(=O)N[C@@H](CCCCN)C(=O)N[C@H](C(=O)N[C@@H](Cc1cnc[nH]1)C(=O)N[C@@H](CC(C)C)C(=O)N[C@@H](CCCN=C(N)N)C(=O)N[C@H]1CSSC[C@@H](C(=O)O)NC(=O)[C@H](Cc2ccccc2)NC(=O)[C@H](C)NC(=O)[C@H](C)NC(=O)[C@H](CCCCN)NC1=O)C(C)C` [AVNIPFKVHLRCKAAFC], the MIC in experiment [2] came to 20 µM (≈ 38.3 µg/mL).
For the compound `CC[C@H](C)[C@H](NC(=O)[C@H](Cc1ccc(O)cc1)NC(=O)[C@H](CCCCN)NC(=O)[C@H](CCCCN)NC(=O)[C@H](CC(C)C)NC(=O)[C@H](CCC(=O)O)NC(=O)[C@H](CCCCN)NC(=O)[C@H](Cc1c[nH]c2ccccc12)NC(=O)[C@@H](NC(=O)[C@H](CCCN=C(N)N)NC(=O)[C@H](CCC(=O)O)NC(=O)[C@H](CO)NC(=O)CNC(=O)[C@H](C)N)[C@@H](C)CC)C(=O)N[C@@H](CCCCN)C(=O)N[C@@H](CCCCN)C(=O)NCC(=O)N[C@@H](CCCCN)C(=O)N[C@@H](CCCCN)C(=O)N[C@H](C(=O)N[C@H](C(=O)N[C@@H](CCCN=C(N)N)C(=O)N[C@@H](C)C(=O)N[C@@H](C)C(=O)N[C@@H](Cc1c[nH]c2ccccc12)C(=O)O)[C@@H](C)CC)C(C)C` [AGSERIWKELKKYIKKGKKVIRAAW], the MIC in experiment [3] is 8 µM (≈ 23.9 µg/mL); in the experiment on Escherichia coli BL21 it was 2 µM (≈ 5.98 µg/mL); in experiment [4] it was 16 µM (≈ 47.8 µg/mL).
With `CC[C@H](C)[C@H](NC(=O)[C@H](CO)NC(=O)[C@H](CO)NC(=O)[C@H](C)NC(=O)[C@H](Cc1c[nH]c2ccccc12)NC(=O)CN)C(=O)NCC(=O)N[C@@H](CO)C(=O)N[C@H](C(=O)N[C@@H](CC(C)C)C(=O)NCC(=O)N[C@@H](CCCCN)C(=O)N[C@@H](Cc1ccccc1)C(=O)N[C@@H](C)C(=O)N[C@@H](CCCCN)C(=O)NCC(=O)NCC(=O)N[C@@H](C)C(=O)N[C@@H](CCC(N)=O)C(=O)N[C@@H](C)C(=O)N[C@@H](Cc1ccccc1)C(=O)N[C@@H](CC(C)C)C(=O)N[C@@H](CCC(N)=O)C(=O)N1CCC[C@H]1C(=O)N[C@@H](CCCCN)C(=O)O)[C@@H](C)CC` [GWASSIGSILGKFAKGGAQAFLQPK], the MIC in the experiment with Micrococcus luteus is 0.5 µM (≈ 1.26 µg/mL); against Saccharomyces cerevisiae, not below 64 µM; in experiment [5], 32 µM (≈ 80.6 µg/mL); in experiment [6], not below 128 µM; in [7], more than 256 µM.
As for `CC(C)C[C@H](NC(=O)[C@@H](NC(=O)[C@H](CCCCN)NC(=O)[C@H](CO)NC(=O)[C@H](C)NC(=O)[C@@H](NC(=O)[C@H](CCCCN)NC(=O)[C@H](Cc1ccccc1)NC(=O)[C@H](CC(C)C)NC(=O)[C@H](C)NC(=O)CNC(=O)[C@H](CC(C)C)NC(=O)[C@@H](N)Cc1ccccc1)C(C)C)C(C)C)C(=O)O` [FLGALFKVASKVL], the MIC was 18 µM (≈ 25 µg/mL) with Shigella dysenteriae; 180 µM (≈ 250 µg/mL) in experiment [8]; 18 µM (≈ 25 µg/mL) with Escherichia coli; 4.52 µM (≈ 6.3 µg/mL) against Micrococcus luteus; 2.23 µM (≈ 3.1 µg/mL) with Staphylococcus aureus; not below 144 µM against Proteus mirabilis. Further, the MIC in experiment [9] was not below 194 µM; against Salmonella typhimurium, not below 71.8 µM; with Bacillus subtilis, 8.98 µM (≈ 12.5 µg/mL); in the experiment on Pseudomonas aeruginosa it was 71.8 µM (≈ 100 µg/mL); in experiment [10] it was 71.8 µM (≈ 100 µg/mL); against Klebsiella pneumoniae, 18 µM (≈ 25 µg/mL). Moreover, the MIC in [11] was not below 35.9 µM; in experiment [12] it was 2.23 µM (≈ 3.1 µg/mL).
For `CC[C@H](C)[C@H](NC(=O)[C@H](CCCCN)NC(=O)CNC(=O)[C@H](Cc1ccccc1)NC(=O)[C@H](CCCCN)NC(=O)[C@H](CCCN=C(N)N)NC(=O)[C@H](CC(C)C)NC(=O)[C@H](Cc1ccc(O)cc1)NC(=O)[C@H](CCC(=O)O)NC(=O)[C@H](CC(C)C)NC(=O)[C@H](CC(C)C)NC(=O)[C@H](CCC(=O)O)NC(=O)[C@H](CCCCN)NC(=O)[C@@H](NC(=O)[C@H](CC(C)C)NC(=O)[C@H](CCCN=C(N)N)NC(=O)[C@H](CCC(N)=O)NC(=O)[C@H](C)NC(=O)CNC(=O)[C@H](C)N)[C@@H](C)O)C(=O)N[C@@H](C)C(=O)N[C@@H](CCCN=C(N)N)C(=O)N[C@@H](CCCCN)C(=O)N[C@@H](C)C(=O)N[C@@H](Cc1c[nH]c2ccccc12)C(=O)O` [AGAQRLTKELLEYLRKFGKIARKAW], the MIC in experiment [3] amounted to 64 µM (≈ 189 µg/mL); against Escherichia coli BL21 it was 4 µM (≈ 11.8 µg/mL); in [4] it was 0.5 µM (≈ 1.47 µg/mL).
In the case of `CC[C@H](C)[C@H](NC(=O)[C@H](CCCCN)NC(=O)[C@H](CCCCN)NC(=O)[C@H](C)NC(=O)[C@H](C)NC(=O)[C@H](C)NC(=O)[C@H](CC(C)C)NC(=O)[C@H](CC(C)C)NC(=O)[C@H](C)NC(=O)[C@H](CCCCN)NC(=O)[C@H](CC(C)C)NC(=O)[C@H](CC(N)=O)NC(=O)[C@@H](N)CC(C)C)C(=O)N[C@@H](CC(C)C)C(N)=O` [LNLKALLAAAKKIL], the MIC in experiment [13] was 16 µM (≈ 23.7 µg/mL); in experiment [14] it was 8 µM (≈ 11.8 µg/mL); in experiment [15], 16 µM (≈ 23.7 µg/mL); in experiment [5], 8 µM (≈ 11.8 µg/mL); in experiment [7], 16 µM (≈ 23.7 µg/mL).
As to `CC(C)C[C@H](NC(=O)[C@H](C)NC(=O)[C@H](CCCCN)NC(=O)[C@H](CC(C)C)NC(=O)[C@H](CC(N)=O)NC(=O)[C@@H](N)CC(C)C)C(=O)N[C@@H](CC(C)C)C(=O)N[C@@H](C)C(=O)N[C@H](C(=O)N[C@@H](C)C(=O)N[C@@H](CCCCN)C(=O)N[C@@H](CCCCN)C(N)=O)C(C)C` [LNLKALLAVAKK], the MIC in experiment [13] was more than 128 µM; in experiment [14], not below 128 µM; in [15], more than 128 µM; in [5], more than 128 µM; in [7], more than 128 µM.
In the case of `NC(=O)[C@H](CCCN=C(N)N)NC(=O)[C@H](CCCN=C(N)N)NC(=O)[C@H](CCCN=C(N)N)NC(=O)[C@@H](N)CCCN=C(N)N` [RRRR], the MIC in experiment [1] is not below 100 µM.
With `NCCCC[C@H](NC(=O)[C@H](Cc1c[nH]c2ccccc12)NC(=O)[C@H](CCCCN)NC(=O)[C@H](Cc1c[nH]c2ccccc12)NC(=O)[C@@H](N)CCCCN)C(=O)N[C@@H](Cc1c[nH]c2ccccc12)C(=O)O` [KWKWKW], the minimum inhibitory concentration (MIC) in experiment [13] is more than 100 µM; in experiment [16], not below 100 µM; in [17], not below 100 µM; in experiment [1], not below 100 µM.
Regarding `NCCCC[C@@H]1NC(=O)[C@H](CCCN=C(N)N)NC(=O)[C@H](CCCCN)NC(=O)[C@H](Cc2c[nH]c3ccccc23)NC(=O)[C@H](CCCCN)NC(=O)[C@H](CCCCN)NC(=O)[C@@H](N)CSSC[C@@H](C(=O)O)NC(=O)[C@H](CCCN=C(N)N)NC1=O` [CKKWKRKRC], the MIC in experiment [11] came to 0.6 µM (≈ 0.74 µg/mL).
For `NC(=O)[C@H](CCCN=C(N)N)NC(=O)[C@H](CCC(=O)O)NC(=O)[C@H](CCCN=C(N)N)NC(=O)[C@@H](N)CCC(=O)O` [ERER], the MIC in [1] was not below 100 µM.

For orientation: MIC means the lowest concentration found to suppress growth. Low values mean inhibition by little substance, high ones a need for much substance.
